Measured values as given in patent US12559475B2, “Tetrazine compound capable of having rapid cycloaddition reaction with non-strained olefinic boronic acid and biomedical application thereof” (NANJING UNIVERSITY, priority 2024, dated 2026).

Tests used:
[1] = test system: HepG2 cells; experiment: Toxicity (MTT cell survival) in HepG2 cells; format: cell-based; details: for IC50: Homo sapiens, HepG2, 48 h incubation, 1% FBS DMEM, MTT
Experimental: Toxicity of the tetrazine Tz-2, the doxorubicin prodrug DOX-VBA, the addition product, and the doxorubicin DOX were first tested.
HepG2 cells were plated in a 96-well plate and attached overnight; 1% FBS DMEM was used as a culture medium on the next day, different concentrations of Tz-2, DOX-VBA, product, and DOX were then added to the culture medium, and incubation was performed at 37° C. for 48 h; and 50 μL 1×MTT was added, the reaction continued for 4 h, DMSO was added to remove the culture medium, and cell survival rates at different concentrations were tested to calculate IC50 values (the cell survival rates were shown in FIG. 6).

[2] = Stability testing of tetrazine compounds in 10% FBS/DMEM (HPLC residual amount); format: physicochemical; details: 100 µM, 2.5% DMSO
Experimental: Specific implementation method: The tetrazine compounds were respectively dissolved in a 10% FBS/DMEM solution at a concentration of 100 µM (the solution contained 2.5% DMSO as a solubilizing agent), and residual amounts of tetrazine compounds were monitored via HPLC after 6 hours and 24 hours to analyze the stability of tetrazine compounds in a biological environment.

[3] = Reaction rate testing of tetrazine compounds and styryl boronic acid (HPLC); details: tetrazine 1 mM, styryl boronic acid 0.2 mM, methanol
Experimental: Specific implementation method: HPLC was used to test reaction rates by monitoring residual amounts of tetrazine compounds after different tetrazine compounds reacted with styryl boronic acid, where a molar concentration of the tetrazine compounds was 1 mM, and a molar concentration of styryl boronic acid was 0.2 mM, and a solvent was methanol solution.

[4] = Molecular release testing of tetrazine compound and styryl boronic acid derivative VBA-2 (NMR); details: Tz-2 + VBA-2, 0.02 M, deuterated DMSO:deuterated H2O=9:1, NMR
Experimental: Specific implementation method: the tetrazine compound Tz-2 and the styryl boronic acid derivative VBA-2 were dissolved in a deuterated solution (deuterated DMSO:deuterated H2O=9:1) at a molar concentration of 0.02 M. Reactions after 5 min, 12 h and 24 h were tested using a 500 MHz a nuclear magnetic resonance analyzer, and characteristic signal peaks of reactants and products on a hydrogen spectrum were tested to assess molecular release.

residual amount of tetrazine compound ([2]; 6 h) | residual amount of tetrazine compound ([2]; 24 h) | SMILES | IC50 [1] | k2 [3] | time in which half of the benzylamine molecules were released [4] | toxicity (in words) ([1]; HepG2 cells)
 |  | COc1cccc2c1C(=O)c1c(O)c3c(c(O)c1C2=O)C[C@@](O)(C(=O)CO)C[C@@H]3O[C@H]1C[C@H](N)[C@H](O)[C@H](C)O1 [DOX, doxorubicin, reference compound] | 500 nM |  |  | 
99% | 85% | COc1ccnc(-c2nnc(-c3ccccc3)nn2)c1C [Tz-1] |  | 56 M⁻¹ s⁻¹ |  | 
55% | 17% | COc1ccnc(-c2nnc(-c3ccccn3)nn2)c1C [Tz-2] | > 100000 nM | 168 M⁻¹ s⁻¹ | 12 h | non-toxic
99% | 92% | COc1ccnc(-c2nnc(-c3ccc(NC(=O)OC(C)(C)C)cc3)nn2)c1C [Tz-10] |  | 45 M⁻¹ s⁻¹ |  | 
99% | 92% | COc1ccnc(-c2nnc(-c3ccc(CNC(=O)OC(C)(C)C)cc3)nn2)c1C [Tz-11] |  | 23 M⁻¹ s⁻¹ |  | 
99% | 90% | COc1c(C)cnc(-c2nnc(-c3ccccc3)nn2)c1C [Tz-16] |  | 28 M⁻¹ s⁻¹ |  | 
35% | 1% | c1ccc(-c2nnc(-c3ccccn3)nn2)nc1 [Tz-Py, reference compound] |  | 1.4 M⁻¹ s⁻¹ |  | 
